Patent US20120214822A1 (ASTRAZENECA AB, priority 2007, published 2012)
Where a name gives a salt, the structure may show the parent alone.

Molecular target: human active recombinant p38α-6His tagged (Homo sapiens, UniProt Q16539)
Sequence (Q16539 whole entry): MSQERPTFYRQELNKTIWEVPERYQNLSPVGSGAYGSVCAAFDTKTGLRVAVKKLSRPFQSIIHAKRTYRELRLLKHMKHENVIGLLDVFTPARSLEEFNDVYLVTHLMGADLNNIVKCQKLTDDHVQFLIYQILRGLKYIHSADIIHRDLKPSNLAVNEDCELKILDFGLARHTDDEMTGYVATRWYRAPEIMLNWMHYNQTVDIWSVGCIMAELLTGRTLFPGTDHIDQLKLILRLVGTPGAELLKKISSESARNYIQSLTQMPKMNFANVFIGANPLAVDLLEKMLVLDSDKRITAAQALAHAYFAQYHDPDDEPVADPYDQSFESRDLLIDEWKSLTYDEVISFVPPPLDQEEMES
Assay: P38 Alpha Enzyme Assay (AlphaScreen, biotinylated-ATF2 substrate);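 note: 0.5 nM final p38α, reaction started with ATP and run 45 min at 37 °C, phospho-ATF2 read by antibody-based AlphaScreen, background wells quenched with EDTA before ATP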
Format: biochemical
Conditions: p38 alpha enzyme inhibition; means of replicate determinations; 4 h pre-incubation at 37° C.; SD of assay 0.2-0.3 log units
Compound `CNCCCOc1ccccc1C1CCCN1c1nccn(-c2cc(C(=O)NC3CC3)ccc2C)c1=O` (stereo not shown) [Example 324, N-Cyclopropyl-4-methyl-3-[3-(2-{2-[3-(methylamino)propoxy]phenyl}pyrrolidin-1-yl)-2-oxopyrazin-1(2H)-yl]benzamide] has a pIC50 of 8.1. `CNCCOc1ccccc1C1CCCN1c1nccn(-c2cc(C(=O)NC3CC3)ccc2C)c1=O` (stereo not shown) [Example 327, N-Cyclopropyl-4-methyl-3-[3-(2-{2-[2-(methylamino)ethoxy]phenyl}pyrrolidin-1-yl)-2-oxopyrazin-1(2H)-yl]benzamide Trifluoroacetate salt] showed a pIC50 of 8. `Cc1c(F)cc(C(=O)NC2CC2)cc1-n1ccnc(N[C@@H](c2ccccc2)[C@@H](C)CN2CCCC2)c1=O` [Example 328, N-Cyclopropyl-3-fluoro-4-methyl-5-[3-{[(1R,2S)-2-methyl-1-phenyl-3-pyrrolidin-1-ylpropyl]amino}-2-oxopyrazin-1(2H)-yl]benzamide] gave a pIC50 of 9. `Cc1c(F)cc(C(=O)NC2CC2)cc1-n1ccnc(N[C@@H](c2ccccc2)[C@@H](C)CN2CCCCC2)c1=O` [Example 329, N-Cyclopropyl-3-fluoro-4-methyl-5-[3-{[(1R,2S)-2-methyl-1-phenyl-3-piperidin-1-ylpropyl]amino}-2-oxopyrazin-1(2H)-yl]benzamide] showed a pIC50 of 9.6. Work on `CNCCOc1ccccc1C(C)(C)Nc1nccn(-c2cc(C(=O)NC3CC3)ccc2Cl)c1=O` [Example 330, 4-Chloro-N-cyclopropyl-3-[3-[(1-methyl-1-{2-[2-(methylamino)ethoxy]phenyl}ethyl)amino]-2-oxopyrazin-1(2H)-yl]benzamide] yielded a pIC50 of 9.4. In the case of `CC(C)(Nc1nccn(-c2cc(C(=O)NC3CC3)ccc2Cl)c1=O)c1ccccc1OCCNCCO` [Example 331, 4-Chloro-N-cyclopropyl-3-[3-{[1-(2-{2-[(2-hydroxyethyl)amino]ethoxy}phenyl)-1-methylethyl]amino}-2-oxopyrazin-1(2H)-yl]benzamide], the pIC50 is reported as 9.6. Compound `C[C@@H](O)CNCCOc1ccccc1C(C)(C)Nc1nccn(-c2cc(C(=O)NC3CC3)ccc2Cl)c1=O` [Example 332, 4-Chloro-N-cyclopropyl-3-[3-({1-[2-(2-{[(2R)-2-hydroxypropyl]amino}ethoxy)phenyl]-1-methylethyl}amino)-2-oxopyrazin-1(2H)-yl]benzamide] has a pIC50 of 9.7. Work on `CCNCCOc1ccccc1C(C)(C)Nc1nccn(-c2cc(C(=O)NC3CC3)ccc2Cl)c1=O` [Example 333, 4-Chloro-N-cyclopropyl-3-[3-[(1-{2-[2-(ethylamino)ethoxy]phenyl}-1-methylethyl)amino]-2-oxopyrazin-1(2H)-yl]benzamide] yielded a pIC50 of 9.5. `CC(C)(Nc1nccn(-c2cc(C(=O)NC3CC3)ccc2Cl)c1=O)c1ccccc1OCCN` [Example 334, 3-[3-({1-[2-(2-Aminoethoxy)phenyl]-1-methylethyl}amino)-2-oxopyrazin-1(2H)-yl]-4-chloro-N-cyclopropylbenzamide] gave a pIC50 of 9.3.

Test system: not listed separately
Assay: GVS (Dynamic Vapour Sorption) water uptake of crystalline forms
Format: physicochemical
Conditions: at 80% RH; ±0.2%
Method: GVS profiles were measured using a Dynamic Vapour Sorption DVS-1 instrument. The solid sample ca. 1-5 mg was placed into a glass vessel and the weight of the sample was recorded during a dual cycle step method (40 to 90 to 0 to 90 to 0% relative humidity (RH), in steps of 10% RH).
With `CNCCOc1ccccc1C(C)(C)Nc1nccn(-c2cc(C(=O)NC3CC3)ccc2C)c1=O.Cc1ccc(S(=O)(=O)O)cc1` [N-Cyclopropyl-4-methyl-3-[3-[[1-methyl-1-[2-[2-(methylamino)ethoxy]phenyl]ethyl]amino]-2-oxo-1(2H)-pyrazinyl]-benzamide Tosylate Salt Crystalline Form A] the GVS weight increase was 0.1 % w/w. For `CNCCOc1ccccc1C(C)(C)Nc1nccn(-c2cc(C(=O)NC3CC3)ccc2C)c1=O` [example 163 crystalline form A, N-Cyclopropyl-4-methyl-3-[3-[[1-methyl-1-[2-[2-(methylamino)ethoxy]phenyl]ethyl]amino]-2-oxo-1(2H)-pyrazinyl]-benzamide Crystalline Form A], the GVS weight increase was 5 % w/w. `CNCCOc1ccccc1C(C)(C)Nc1nccn(-c2cc(C(=O)NC3CC3)ccc2C)c1=O` [example 163 crystalline form B, N-Cyclopropyl-4-methyl-3-[3-[[1-methyl-1-[2-[2-(methylamino)ethoxy]phenyl]ethyl]amino]-2-oxo-1(2H)-pyrazinyl]-benzamide Crystalline Form B] showed a GVS weight increase of 4.3 % w/w. `CNCCOc1ccccc1C(C)(C)Nc1nccn(-c2cc(C(=O)NC3CC3)ccc2C)c1=O` [example 163 crystalline form C, N-Cyclopropyl-4-methyl-3-[3-[[1-methyl-1-[2-[2-(methylamino)ethoxy]phenyl]ethyl]amino]-2-oxo-1(2H)-pyrazinyl]-benzamide Crystalline Form C] gave a GVS weight increase of 0.3 % w/w.

Same assay, conditions: between RH of 0%-80%; ±0.2%
In the case of `CNCCOc1ccccc1C1(Nc2nccn(-c3cc(C(=O)NC4CC4)ccc3C)c2=O)CC1` [example 167 Crystalline Form A, N-Cyclopropyl-4-methyl-3-[3-[[1-[2-[2-(methylamino)ethoxy]phenyl]cyclopropyl]amino]-2-oxo-1(2H)-pyrazinyl]-benzamide Crystalline Form A], the “water uptake as measured by GVS” value is reported as 1%. With `CNCCOc1ccccc1C1(Nc2nccn(-c3cc(C(=O)NC4CC4)cc(F)c3C)c2=O)CC1` [example 259 crystalline form A, N-Cyclopropyl-3-fluoro-4-methyl-5-[3-[[1-[2-[2-(methylamino)ethoxy]phenyl]cyclopropyl]amino]-2-oxo-1(2H)-pyrazinyl]-benzamide Crystalline Form A] the “water uptake as measured by GVS” value was 0.4%. With `Cc1c(F)cc(C(=O)NC2CC2)cc1-n1ccnc(NC2(c3ccccc3OCCNCCO)CC2)c1=O` [example 260 crystalline form A, N-Cyclopropyl-3-fluoro-5-[3-[[1-[2-[2-[(2-hydroxyethyl)amino]ethoxy]phenyl]cyclopropyl]amino]-2-oxo-1(2H)-pyrazinyl]-4-methyl-benzamide Crystalline Form A] the “water uptake as measured by GVS” value was 1.2%.
